Like-named read-outs stand apart in the source and are kept apart here.
Legend:
[1] = biological target: HCV NS3 protease genotype 3a (3A-1) (Hepatitis C virus genotype 3a, UniProt Q81258); assay: HCV NS3 protease time-resolved fluorescence (TRF) assay, genotype 3a; type: biochemical
Experimental: (§1) The HCV NS3 protease inhibitory activity of the present compounds may be tested using assays known in the art. One such assay is HCV NS3 protease time-resolved fluorescence (TRF) assay as described below and in International Patent Application Publication No. WO2006/102087. Other examples of such assays are described in e.g., International Patent Application Publication No. WO2005/046712. The assay is performed in a final volume of 100 μl in assay buffer containing 50 mM HEPES, pH 7.5, 150 mM NaCl, 15% glycerol, 0.15% Triton X-100, 10 mM DTT, and 0.1% PEG 8000. NS3 protease is pre-incubated with various concentrations of inhibitors in DMSO for 30 minutes. The reaction is initiated by adding the TRF peptide substrate (final concentration 100 nM). NS3 mediated hydrolysis of the substrate is quenched after 1 hour at room temperature with 100 μl of 500 mM MES, pH 5.5. Product fluorescence is detected using either a VICTOR V2 or FUSION fluorophotometer (Perkin Elmer Life and Analytical Sciences) with excitation at 340 nm and emission at 615 nm with a 400 μs delay. Testing concentrations of different enzyme forms are selected to result in a signal to background ratio (S/B) of 10-30. IC50 values are derived using a standard four-parameter fit to the data. K; values are derived from IC50 values using the following formula, IC50=Ki(1+[S]/Km), Eqn (1), where [S] is the concentration of substrate peptide in the reaction and KM is the Michaelis constant. See Gallinari et al., 1999, Biochem. 38:5620-32; Gallinari et al., 1998, J. Virol. 72:6758-69; Taliani et al., 1996, Anal. Biochem. 240:60-67.
(§2) The HCV NS3 protease inhibitory activity was measured using the protease time-resolved fluorescence (TRF) assay as described below and in International Patent Application Publication No. WO 2006/102087. The assay was performed with HCV genotype 1b (BK) NS3 modified enzyme with a R155K mutation and genotype 3a (3A-1).
(§3) The assay was performed in a final volume of 50 μl in assay buffer containing 50 mM HEPES, pH 7.5, 150 mM NaCl, 15% glycerol, 0.15% TRITON X-100, 10 mM DTT, and 0.1% PEG 8000. NS3 and NS4A protease is pre-incubated with various concentrations of inhibitors in DMSO for 10 minutes. The reaction was initiated by adding the TRF peptide substrate (final concentration 25 nM) and NS3 mediated hydrolysis of the substrate proceeds for 6 hours at room temperature. Product fluorescence is detected using an Envision plate reader (Perkin Elmer) with excitation at 340 nm and emission at 615 nm with a 400 μs delay. Testing concentrations of the enzymes were selected to result in a signal to background ratio (S/B) of 5-20. IC50 values are derived using a standard four-parameter fit to the data.
(§4) NS3 and NS4A protease is pre-incubated with various concentrations of inhibitors in DMSO for 30 minutes. The reaction is initiated by adding the TRF peptide substrate (final concentration 100 nM). NS3 mediated hydrolysis of the substrate is quenched after 1 hour at room temperature with 100 μl of 500 mM MES, pH 5.5. Product fluorescence is detected using either a VICTOR V2 or FUSION fluorophotometer (Perkin Elmer Life and Analytical Sciences) with excitation at 340 nm and emission at 615 nm with a 400 μs delay. Testing concentrations of the enzymes are selected to result in a signal to background ratio (S/B) of 8-30. IC50 values are derived using a standard four-parameter fit to the data. Ki values are derived from IC50 values using the following formula, IC50=Ki(1+[S][…]), Eqn (1), where [S] is the concentration of substrate peptide in the reaction and KM is the Michaelis constant. See Gallinari et al., 1999, Biochem. 38:5620-32; Gallinari et al., 1998, J. Virol. 72:6758-69; and Taliani et al., 1996, Anal. Biochem. 240:60-67. ND means not determined.

[2] = biological target: T1, HCV genotype 1b (BK) NS3 modified enzyme with a R155K mutation (Hepatitis C virus genotype 1b, UniProt P26663, R1181K); assay: HCV NS3 protease time-resolved fluorescence (TRF) assay, genotype 1b R155K; type: biochemical; details: Ki 1b R155K, genotype 1b (BK) NS3 R155K; single value
T1 construct: HCV genotype 1b (BK) NS3 modified enzyme
Experimental: as §1, §2, §3, §4

Row | SMILES | Ki ([1]; Ki 3a) | Ki [2] | Ki ([1]; read-out: Ki 3a)
1 | C=C[C@@H]1C[C@]1(NC(=O)[C@@H]1C[C@@H]2CN1C(=O)[C@H](C1CCCC1)NC(=O)O[C@@H]1C[C@H]1CC/C=C/Cc1c(nc3ccccc3c1OC)O2)C(=O)NS(=O)(=O)C1CC1 [Example 11, (1aR,5S,10R,19E,22aR)-5-cyclo pentyl-N-{(1R,2S)-1-[(cyclopropylsulfonyl)carbamoyl]-2-ethenylcyclopropyl}-17-methoxy-3,6-dioxo-1,1a, 3,4,5,6,9,10,18,21,22,22a-dodeca hydro-8H-7,10-methanocyclopropa[18,19][1,10,3,6] dioxadiazacyclononadecino[11,12-b] quinoline-8-carboxamide] | 11 nM | 0.26 nM | –
2 | C=C[C@@H]1C[C@]1(NC(=O)[C@@H]1C[C@@H]2CN1C(=O)[C@H](C1CCCC1)NC(=O)O[C@H]1C[C@@H]1CC/C=C/Cc1c(nc3ccccc3c1OC)O2)C(=O)NS(=O)(=O)C1CC1 [Example 12, (1aS,5S,8S,10R,19E,22aS)-5-cyclo pentyl-N-{(1R,2S)-1-[(cyclopropylsulfonyl)carbamoyl]-2-ethenylcyclopropyl}-17-methoxy-3,6-dioxo-1,1a,3,4,5,6,9,10,18,21,22,22a-dodecahydro-8H-7,10-methanocyclopropa[18,19][1,10,3,6] dioxadiazacyclononadecino[11,12-&]quinoline-8-carboxamide] | 340 nM | 3.3 nM | –
3 | COc1c2c(nc3ccccc13)O[C@@H]1C[C@@H](C(=O)N[C@]3(C(=O)NS(=O)(=O)C4CC4)C[C@H]3C3CC3)N(C1)C(=O)[C@H](C1CCCC1)NC(=O)O[C@@H]1CCC[C@H]1CC/C=C/C2 [Example 13, (3aR,7S,10S,12R,21E,24aS)-7-cyclopentyl-N-[(1S,2R)-2-[(cyclopropylsulfonyl)carbamoyl]-1,1′-bi(cyclopropyl)-2-yl]-19-methoxy-5,8-dioxo-1,2,3,3a,5,6,7,8,11,12,20,23,24,24a-tetradecahydro-10H-9,12-methanocyclopenta[18,19][1,10,3,6] dioxadiazacyclononadecino[11,12-b]quinoline-10-carboxamide] | 15 nM | 0.93 nM | –
4 | C=C[C@@H]1C[C@]1(NC(=O)[C@@H]1C[C@@H]2CN1C(=O)[C@H](C1CCCC1)NC(=O)O[C@]1(C)CCC[C@H]1CC/C=C/Cc1c(nc3ccccc3c1OCc1ccccc1)O2)C(=O)NS(=O)(=O)C1CC1 [Example 14, (3aR,7S,10S,12R,21E,24aS)-19-(benzyloxy)-7-cyclopentyl-N-{(1R,2S)-1-[(cyclopropylsulfonyl)carbamoyl]-2-ethenylcyclopropyl}-3a-methyl-5,8-dioxo-1,2,3,3a,5,6,7,8,11,12,20,23,24,24a-tetradecahydro-10H-9,12-methanocyclopenta[18,19] [1,10,3,6]dioxadiazacyclononadecino[11,12-b] quinoline-10-carboxamide] | – | 0.81 nM | 28 nM
5 | C=C[C@@H]1C[C@]1(NC(=O)[C@@H]1C[C@@H]2CN1C(=O)[C@H](C1CCCC1)NC(=O)O[C@@H]1CCC[C@H]1CC/C=C/Cc1c(nc3ccccc3c1OCc1ccccc1)O2)C(=O)NS(=O)(=O)C1(C)CC1 [Example 15, (3aR,7S,10S,12R,21E,24aS)-19-(benzyloxy)-7-cyclopentyl-N-[(1H,2S)-2-ethenyl-1-{[(1-methylcyclopropyl)sulfonyl]carbamoyl}cyclopropyl]-5,8-dioxo-1,2,3,3a,5,6,7,8,11,12,20,23,24,24a-tetradecahydro-10H-9,12-methanocyclopenta[18,19] [1,10,3,6]dioxadiazacyclononadecino[11,12-b] quinoline-10-carboxamide] | 36 nM | 0.81 nM | –
6 | C=C[C@@H]1C[C@]1(NC(=O)[C@@H]1C[C@@H]2CN1C(=O)[C@H](C1CCCC1)NC(=O)N1CC[C@@H](C1)OCCC/C=C/Cc1c(nc3ccccc3c1OCC)O2)C(=O)NS(=O)(=O)C1CC1 [Example 16, (2R,4S,7S,13S,18E)-7-cyclopentyl-N-{(1R,2S)-1-[(cyclopropylsulfonyl)carbamoyl]-2-ethenylcyclo-propyl}-21-ethoxy-6,9-dioxo-3,4,6,7,8,9,12,13, 15,16,17,20-dodecahydro-2H,11H-2,5:10,13-dimethano[1,14,5,7,10]dioxatriazacyclodocosino [15,16-b]quinoline-4-carboxamide] | 70 nM | 1.1 nM | –
7 | C=C[C@@H]1C[C@]1(NC(=O)[C@@H]1C[C@@H]2CN1C(=O)[C@H](C1CCCC1)NC(=O)O[C@@H]1CCC[C@H]1CC/C=C/Cc1c(nc3ccccc3c1O)O2)C(=O)NS(=O)(=O)C1CC1 [Example 17, (3aR,7S,10S,12R,21E,24aS)-7-cyclopentyl-N-{(1R,2S)-1-[(cyclopropylsulfonyl)carbamoyl]-2-ethenylcyclopropyl}-19-hydroxy-5,8-dioxo-1,2,3,3a,5,6,7,8,11,12,20,23,24,24a-tetradecahydro-10H-9,12-methanocyclopenta[18,19][1,10,3,6]dioxadiazacyclononadecino[11,12-b]quinoline-10-carboxamide] | 0.45 nM | < 0.016 nM | –
8 | C=C[C@@H]1C[C@]1(NC(=O)[C@@H]1C[C@@H]2CN1C(=O)[C@H](C1CCCC1)NC(=O)O[C@@H]1CCC[C@H]1CCC/C=C/Cc1c(nc3ccccc3c1O)O2)C(=O)NS(=O)(=O)C1CC1 [Example 18] | 12 nM | 0.79 nM | –
9 | C=C[C@@H]1C[C@]1(NC(=O)[C@@H]1C[C@@H]2CN1C(=O)[C@H](C1CCCC1)NC(=O)O[C@@]1(C)C[C@@H]1CC/C=C/Cc1c(nc3ccccc3c1O)O2)C(=O)NS(=O)(=O)C1CC1 [Example 20, (1aS,5S,8S,10R,19E,22aS)-5-cyclopentyl-N-{(1R,2S)-1-[(cyclopropylsulfonyl)carbamoyl]-2-ethenylcyclopropyl}-17-hydroxy-1a-methyl-3,6-dioxo-1,1a,3,4,5,6,9,10,18,21,22,22a-dodecahydro-8H-7,10-methanocyclopropa[18,19][1,10,3,6]dioxadiazacyclononadecino[11,12-b]quinoline-8-carboxamide] | 22 nM | 0.55 nM | –
10 | O=C1N[C@@H](C2CCCC2)C(=O)N2C[C@@H](C[C@H]2C(=O)N[C@]2(C(=O)NS(=O)(=O)C3CC3)C[C@H]2C2CC2)Oc2nc3ccccc3c(O)c2C/C=C/CC[C@@H]2CCC[C@H]2O1 [Example 21, (3aR,7S,10S,12R,21E,24aS)-7-cyclopentyl-N-[(1S,2R)-2-[(cyclopropylsulfonyl)carbamoyl]-1,1′-bi(cyclopropyl)-2-yl]-19-hydroxy-5,8-dioxo-1,2,3,3a,5,6,7,8,11,12,20,23,24,24a-tetradecahydro-10H-9,12-methanocyclopenta[18,19][1,10,3,6]dioxadiazacyclononadecino[11,12-b]quinoline-10-carboxamide] | 9.6 nM | 0.51 nM | –

Source: US9328138B2 (priority 2011, dated 2016)
